Measurements taken from patent US4774232A, “Bile-substituting method of treatment for the promotion of fat digestion” (Chinoin Gyogyszer Es Vegyeszeti Termak Ek Gyara Rt, priority 1985, dated 1988).

Key:
[1] = system: lipase (pancreas suspension); experiment: In vitro enzymatic hydrolysis of triglycerides: olive oil, pancreas suspension; assay type: biochemical; details: for 0.005 N NaOH consumed: series Bile I, olive oil, pancreas suspension, 37° C.
Protocol: (§1) In an aqueous medium, lipase is capable to split triglycerides only at an extraordinarily low rate. Therefore, an organic solvent should be added to the system, by which the solubility of the triglycerides is increased, but the enzyme activity is diminished. Alternatively, some type of detergent, suitably bile has to be used. The effect of bile was compared to that of DIMEB at 37° C. in such a way that, the quantity of the formed free fatty acids in the samples taken from the reaction mixture at various intervals was titrated by using sodium hydroxide solution. The composition of the reaction mixture was as follows:
(§2) a total volume of 1.5 ml contained 4 μmoles of the substrate (triolein or olive oil), 10 mg of bovine serum albumin, 75 μmoles of sodium chloride, 50 μmoles of a phosphate buffer solution (pH 7.4) and 0.25 ml of an enzyme solution. A lipase of the Serva Company (in an 1 mg/10 ml solution) or a pancreas powder (0.5 g was suspended in 10 ml of distilled water and the slightly opalescent solution obtained after filtration was used) were employed as enzyme preparations.
(§3) The composition of the solutions to be tested were as follows:
(§4) 0.5 ml of buffer+10 mg of serum albumin+3.54 mg of substrate+0.25 ml of enzyme solution plus
(§5) (a) 0.25 ml of diluted bile+0.50 ml of distilled water; or
(§6) (b) 50 mg of dimethyl-β-cyclodextrin dissolved in 0.75 ml of water; or […]

[2] = system: lipase; experiment: In vitro enzymatic hydrolysis of triglycerides: glycerol trioleate, lipase; assay type: biochemical; details: 37° C.
Protocol: as §1, §2, §3, §4, §5, §6

[3] = system: bile duct-ligated rabbits; experiment: Substitution of the bile in bile duct-ligated rabbits (plasma triglyceride); assay type: in vivo, rabbits (Orychtolagus cuniculus); details: for Plasma triglyceride concentration: rabbits after bile duct ligature
Protocol: The triglyceride concentration of the plasma was determined by using the method of E. Van Handel [Clin. Chem.. 7, 249 (1961)], whereas the concentration of the free fatty acids was measured according to W. G. Dumcombe [Biochem. J. 88, 7 (1963)].
The experimental animals were prevented in using their own bile for digestion of lipids by ligating their bile duct. Triglyceride concentration of the blood plasma was investigated after oral administration of lipids under normal pancreas secretion.
The experimental rabbits (Orychtolagus cuniculus) were kept at a standard food fo 10 days before the experiment. The organic material composition of the animal food was as follows:
The energy content of 100 g of the food amounted to […]. The animals were starved for 12 to 24 hours before the surgical operations but received water ad libitum. Within the same experimental series, rabbits of the same sex with a body weight of 2500 to 3000 g were used and the surgical operations were concurrently carried out. Pseudo-operated animals were used as controls. The operated experimental animals were used for the investigations after 48 hours. The test substances were orally administered to the animals through a gastric tube. The blood samples were taken from the auricular marginal vene.
In the first series of experiments, the first group of animals were given 3 ml of sunflower oil, the second group of animals were given 3 ml of sunflower oil and 200 mg of DIMEB dissolved in 3 ml of water. The control (speudo-operated) animals received 6 ml of water.
It is known that the digestion of the fats is a slower process than that of the oils. Thus, in the second series of experiments, the changes of the plasma triglyceride concentration of bile duct-ligated rabbits were followed after the oral administration of 5 ml of swine fat and 5 ml of swine fat together with 300 mg of DIMEB, respectively. The control group was given 5 ml of water (Table V). The quantity of the triglycerides was increased by about 100 percent as compared to the other two groups within one hour following the treatment. This tendency permanently remained during the experimental period lasting 6 hours.

[4] = system: bile duct-ligated rats; experiment: Substitution of the bile in rats: plasma total lipid after single fat dose; assay type: in vivo, rats (Etymis rattus var. albino)
Protocol: In the first series of experiments, the total lipid concentration of the plasma was investigated in bile-deficient rats.
The experimental rats (Etymis rattus var. albino) were kept on a standard food for 10 days before the experiment. The composition of this animal food was as follows:
The bile duct was ligated under ether anaesthesia.
In the 48th hour following the operation, 1.5 ml of swine fat or 1.5 ml of swine fat together with 75 mg of DIMEB were orally administered. After 4.5 hours, the animals were decapitated and the total lipid concentration of the plasma was determined according to the method of de La Huerga et al. [Amer. J. Clin. Pathol. 23, 1163 (1953)]

[5] = system: bile-deficient rats; experiment: Substitution of the bile in rats: 5-day fat treatment, faecal, plasma and liver lipids; assay type: in vivo, rats (Etymis rattus var. albino)
Protocol: In an other series of experiments, the total lipid content of the faeces discharged by bile-deficient rats was studied.
The oral treatment was started with the daily administration of 1 ml of swine fat or 1 ml of swine fat together with 150 mg of DIMEB, respectively, in the 72nd hour following the ligature. The treatment was continued for 5 days. The faeces was collected in the first 4 days of the treatment. In the 4th hour following the treatment on the 5th day, the experimental animals were decapitated and their samples were worked up. […] An extraordinarily high amount of lipids were eliminated with the faeces of the animals fed with fat. […] Nearly 100 percent of the introduced fat was absorbed under the effect of DIMEB.
A significant deviation was observed between the groups treated with fat or with fat together with DIMEB, respectively. […] The triglyceride concentration was restored in this group to the control value by the treatment with fat. A significant increase in the triglyceride concentration was induced by the treatment with fat together with DIMEB in comparison to the former group.

[6] = system: mice; experiment: Toxicity on mice; assay type: in vivo; details: doses up to 3000 mg/kg of body-weight
[7] = Absorption and elimination of DIMEB in animal experiments; assay type: in vivo
[8] = bile acid-deficient rats, daily 1 ml fat + 150 mg DIMEB, treatment lasting 5 days

COC[C@H]1O[C@@H]2O[C@H]3[C@H](O)[C@@H](OC)[C@@H](O[C@H]4[C@H](O)[C@@H](OC)[C@@H](O[C@H]5[C@H](O)[C@@H](OC)[C@@H](O[C@H]6[C@H](O)[C@@H](OC)[C@@H](O[C@H]7[C@H](O)[C@@H](OC)[C@@H](O[C@H]8[C@H](O)[C@@H](OC)[C@@H](O[C@H]1[C@H](O)[C@H]2OC)O[C@@H]8COC)O[C@@H]7COC)O[C@@H]6COC)O[C@@H]5COC)O[C@@H]4COC)O[C@@H]3COC [DIMEB, heptakis(2,6-di-O-methyl)-β-cyclodextrin]
Effect on the action of lipase ([1]; in vitro, Table 1 overall): accelerate the action of lipase to a significant extent
0.005 N NaOH consumed ([1]; reaction time 0.5 hour): 1.74 mL
0.005 N NaOH consumed ([1]; reaction time 1 hour): 2.00 mL
0.005 N NaOH consumed ([1]; reaction time 2 hour): 2.20 mL
0.005 N NaOH consumed ([1]; reaction time 19 hour): 4.77 mL
0.005 N NaOH consumed ([2]; series Bile II, glycerol trioleate, reaction time 1 hour): 0.34 mL
0.005 N NaOH consumed ([2]; series Bile II, glycerol trioleate, reaction time 2 hour): 0.80 mL
0.005 N NaOH consumed ([2]; series Bile II, glycerol trioleate, reaction time 3 hour): 1.16 mL
0.005 N NaOH consumed ([2]; series Bile II, glycerol trioleate, reaction time 21 hour): 1.86 mL
0.005 N NaOH consumed ([2]; series Bile III, glycerol triolate, reaction time 1 hour): 0.28 mL
0.005 N NaOH consumed ([2]; series Bile III, glycerol triolate, reaction time 2 hour): 0.68 mL
0.005 N NaOH consumed ([2]; series Bile III, glycerol triolate, reaction time 4 hour): 1.20 mL
Plasma triglyceride concentration compared with the group treated with oil alone ([3]; bile duct-ligated rabbits, 3 ml sunflower oil + 200 mg DIMEB, 6th hour): nearly three-fold
Increase of the quantity of plasma triglycerides compared to the other two groups ([3]; bile duct-ligated rabbits, 5 ml swine fat + 300 mg DIMEB, within one hour following the treatment): about 100%
Plasma triglyceride concentration ([3]; 3 ml sunflower oil + 200 mg DIMEB oral, Hour 0): 52 ± 19 mg/100 ml
Plasma triglyceride concentration ([3]; 3 ml sunflower oil + 200 mg DIMEB oral, Hour 1): 96 ± 32 mg/100 ml
Plasma triglyceride concentration ([3]; 3 ml sunflower oil + 200 mg DIMEB oral, Hour 2.5): 87 ± 30 mg/100 ml
Plasma triglyceride concentration ([3]; 3 ml sunflower oil + 200 mg DIMEB oral, Hour 4): 61 ± 14 mg/100 ml
Plasma triglyceride concentration ([3]; 3 ml sunflower oil + 200 mg DIMEB oral, Hour 6): 125 ± 3 mg/100 ml
Plasma triglyceride concentration ([3]; 5 ml swine fat + 300 mg DIMEB oral, Hour 0): 58 ± 19 mg/100 ml
Plasma triglyceride concentration ([3]; 5 ml swine fat + 300 mg DIMEB oral, Hour 1): 104 ± 30 mg/100 ml
Plasma triglyceride concentration ([3]; 5 ml swine fat + 300 mg DIMEB oral, Hour 2.5): 92 ± 26 mg/100 ml
Plasma triglyceride concentration ([3]; 5 ml swine fat + 300 mg DIMEB oral, Hour 4): 83 ± 25 mg/100 ml
Plasma triglyceride concentration ([3]; 5 ml swine fat + 300 mg DIMEB oral, Hour 6): 125 ± 3 mg/100 ml
Increase of total lipid fraction in the blood plasma ([4]; bile duct-ligated rats, 1.5 ml fat + 75 mg DIMEB): 5 fold
Total lipid concentration of the blood plasma ([4]; rats after bile duct-ligation, 1.5 ml fat + 75 mg DIMEB oral, after 4.5 hours): 1266.6 ± 86.5 mg/100 ml
Fat discharge (total lipid content of the faeces) ([5]; bile acid-deficient rats, daily 1 ml fat + 150 mg DIMEB for 5 days, faeces of first 4 days): 6.16 ± 2.37 g/100 g
Liver triglycerides [5, 8]: 9.1 ± 2.2 mg/100 ml
Plasma total lipids [5, 8]: 688.7 ± 95.8 mg/100 ml
Plasma triglycerides [5, 8]: 71.9 ± 19.1 mg/100 ml
Introduced fat absorbed ([5]; bile-deficient rats, daily 1 ml swine fat + 150 mg DIMEB): ~100%
Toxic phenomena [6]: no toxic phenomena
Time to complete elimination through the kidneys ([7]; after intravenous administration): ≤ 6 h
Absorption after oral administration ([7]; animal experiments, oral): not absorbed
